Measured values as given in patent US11021468B2, “TGF-ß inhibitors” (Rigel Pharmaceuticals, Inc., priority 2015, dated 2021).

Experiments:
GDF8 = assay: AlphaScreen SureFire SMAD3 (p-Ser423/425) assay, GDF8-stimulated (GDF pSMAD (MPC11)); format: cell-based; details: p-SMAD-3 (Ser423/425)
Source text: (§1) Example 2: AlphaScreen® SureFire® SMAD3 (p-Ser423/425) Assay
(§2) The p-SMAD-3 (Ser423/425) SureFire® assay has been designed to measure the phosphorylation of endogenous cellular p-SMAD-3 (Ser423/425) in cell lysates and is a system for the screening of both modulators of receptor activation (e.g. agonists and antagonists) as well as agents acting intracellularly, such as small molecule inhibitors of upstream events. The assay will measure p-SMAD-3 (Ser423/425) activation by either cloned or endogenous receptors, and can be applied to primary cells.
(§3) P-SMAD-3 (Ser423/425) SureFire® Assay Protocols
(§4) 96-well Assay Protocol for 293FT and RMS13 adherent cells can be carried out manually or in high throughput with liquid handling robots.
(§5) The cells (80 μL of cells for 96 well plates) were plated in collagen coated tissue culture plates in RPMI or FreeStyle medium (Invitrogen) and incubated overnight. For manual analysis, 6 plates for GDF8, 6 plates for TGFβ, and optionally 6 plates for Alk5ca(ALK5 constitutively active) were used.
(§6) The compound dilution plates were prepared as follows: 12 μL of DMSO was transferred into first column of 96-well plate, and 16 μL of DMSO was transferred into columns 2-12 of the 96-well plate. 12 μL of compound solution was transferred into first column of the DMSO-containing 96-well plate. Three-fold dilution was performed up to column 10 of the DMSO-containing 96-well plate.
(§7) The plate containing cells were treated with compounds for about 10 minutes, and then ligand was added. GDF8 or TGFb was added to plates to stimulate. 293FL cells were stimulated for 90 minutes at 37° C.; and RMS13 cells were stimulated for 60 minutes at 37° C. The medium was then removed from the cells, and 1× Lysis Buffer (about 25 μL) was added and the plate was gently agitated on plate shaker for 5-10 minutes.
(§8) The lysate (5 μL) was then placed into 384-well shallow plates avoiding the generation of bubbles. To this, the Reaction Buffer+Activation Buffer+AlphaScreen® Acceptor beads mixture (5 μL) was added. The plate was sealed with adhesive cover and shielded from light (e.g., with metal foil), and agitated gently on plate shaker for 2 hours at room temperature.
(§9) Dilution buffer+AlphaScreen® Donor beads (2 μL) was then added, and the plate was intubated on the plate shaker for an additional 1½ hours. After completion, the plate was read on Synergy-4 or Enspire plate reader, using AlphaScreen® pSMAD3® settings.
(§10) Representative results for inhibition of GDF8 (data=GDF pSMAD (MPC11) (μM)) and TGF-β (data=TGF-β pSMAD (MPC-11) (μM)) signaling are shown in Table 1: […]

TGF-β = assay: AlphaScreen SureFire SMAD3 (p-Ser423/425) assay, TGF-β-stimulated (TGF-β pSMAD (MPC-11)); format: cell-based; details: p-SMAD-3 (Ser423/425)
Source text: as §1, §2, §3, §4, §5, §6, §7, §8, §9, §10

[1] = Mus musculus, MPC-11, inhibition of GDF8 signaling
[2] = Mus musculus, MPC-11, inhibition of TGF-β signaling

SMILES | IC50 (GDF8; [1]) [µM] | IC50 (TGF-β; [2]) [µM] | IC50 (GDF8; inhibition of GDF8 signaling) [µM] | IC50 (TGF-β; inhibition of TGF-β signaling) [µM]
Cc1ccc(C)c(-c2nccc(Nc3ccc4c(cnn4C(=O)CN(C)C)c3)n2)c1 [Compound 1, 2-(Dimethylamino)-1-(5-((2-(2,5-dimethylphenyl)pyrimidin-4-yl)amino)-1H-indazol-1-yl)ethan-1-one] | 0.0472 | 0.56 |  | 
Cc1cccc(-c2nc(Nc3cnc4[nH]ncc4c3)c3ccccc3n2)n1 [Compound 2, 2-(6-Methylpyridin-2-yl)-N-(1H-pyrazolo[3,4-b]pyridin-5-yl)quinazolin-4-amine] | 0.144 | 0.318 |  | 
Fc1ccc(-c2nccc(Nc3cnc4[nH]ncc4c3)n2)cc1F [Compound 3, N-(2-(3,4-Difluorophenyl)pyrimidin-4-yl)-1H-pyrazolo[3,4-b]pyridin-5-amine] | 0.382 | 1.53 |  | 
Fc1ccc(-c2nccc(Nc3cnc4[nH]ncc4c3)n2)cc1 [Compound 4, N-(2-(4-Fluorophenyl)pyrimidin-4-yl)-1H-pyrazolo[3,4-b]pyridin-5-amine] | 0.171 | 0.84 |  | 
Cc1cc(F)ccc1-c1ncc(F)c(Nc2cnc3[nH]ncc3c2)n1 [Compound 12, N-(5-Fluoro-2-(4-fluoro-2-methylphenyl)pyrimidin-4-yl)-1H-pyrazolo[3,4-b]pyridin-5-amine] | 0.481 | 1.59 |  | 
Cc1cnc(-c2cccc(F)c2)nc1Nc1cnc2[nH]ncc2c1 [Compound 13, N-(2-(3-Fluorophenyl)-5-methylpyrimidin-4-yl)-1H-pyrazolo[3,4-b]pyridin-5-amine] | 0.883 | 2.72 |  | 
Cc1cnc(-c2ccc(F)c(F)c2)nc1Nc1cnc2[nH]ncc2c1 [Compound 15, N-(2-(3,4-Difluorophenyl)-5-methylpyrimidin-4-yl)-1H-pyrazolo[3,4-b]pyridin-5-amine] | 0.685 | 0.876 |  | 
Cc1cccc(-c2ncc(C)c(Nc3cnc4[nH]ncc4c3)n2)c1 [Compound 16, N-(2-(3-Methylphenyl)-5-methylpyrimidin-4-yl)-1H-pyrazolo[3,4-b]pyridin-5-amine] | 0.289 | 0.41 |  | 
Fc1ccccc1-c1nccc(Nc2ccc3[nH]ncc3c2)n1 [Compound 17, N-(2-(2-Fluorophenyl)pyrimidin-4-yl)-1H-indazol-5-amine] | 0.22 | 2.17 |  | 
COc1cccc(-c2nccc(Nc3ccc4[nH]ncc4c3)n2)c1 [Compound 19, N-(2-(3-Methoxyphenyl)pyrimidin-4-yl)-1H-indazol-5-amine] | 0.767 | 4.05 |  | 
c1ccc(-c2nccc(Nc3ccc4[nH]ncc4c3)n2)cc1 [Compound 20, N-(2-Phenylpyrimidin-4-yl)-1H-indazol-5-amine] | 0.358 | 1.74 |  | 
Cc1ccccc1-c1nccc(Nc2ccc3[nH]ncc3c2)n1 [Compound 21, N-(2-(2-Methylphenyl)pyrimidin-4-yl)-1H-indazol-5-amine] | 0.201 | 1.23 |  | 
Fc1cc2[nH]ncc2cc1Nc1ccnc(-c2ccccc2F)n1 [Compound 23, 6-Fluoro-N-(2-(2-fluorophenyl)pyrimidin-4-yl)-1H-indazol-5-amine] | 0.257 | 1.32 |  | 
Fc1cc(F)cc(-c2nccc(Nc3ccc4[nH]ncc4c3)n2)c1 [Compound 27, N-(2-(3,5-Difluorophenyl)pyrimidin-4-yl)-1H-indazol-5-amine] | 0.287 | 2.2 |  | 
COc1ccc(-c2nccc(Nc3ccc4[nH]ncc4c3)n2)cc1F [Compound 28, N-(2-(3-Fluoro-4-methoxyphenyl)pyrimidin-4-yl)-1H-indazol-5-amine] | 0.363 | 2.15 |  | 
N#Cc1cccc(-c2nccc(Nc3ccc4[nH]ncc4c3)n2)c1 [Compound 29, N-(2-(3-Cyanophenyl)pyrimidin-4-yl)-1H-indazol-5-amine] | 0.0215 | 0.0853 |  | 
Cc1ccc(C)c(-c2nccc(Nc3ccc4[nH]ncc4c3)n2)c1 [Compound 30, N-(2-(2,5-Dimethylphenyl)pyrimidin-4-yl)-1H-indazol-5-amine] | 0.193 | 0.842 |  | 
Nc1cccc(-c2nccc(Nc3ccc4[nH]ncc4c3)n2)c1 [Compound 31, N-(2-(3-Aminophenyl)pyrimidin-4-yl)-1H-indazol-5-amine] | 0.463 | 2.71 |  | 

Now from value to compound:

IC50 (GDF8; [1]) [µM] | IC50 (TGF-β; [2]) [µM] | IC50 (GDF8; inhibition of GDF8 signaling) [µM] | IC50 (TGF-β; inhibition of TGF-β signaling) [µM] | SMILES
0.0661 | 0.751 |  |  | Fc1ccc(-c2nc(Nc3ccc4[nH]ncc4c3)c3cc[nH]c3n2)cc1 [Compound 5, 2-(4-Fluorophenyl)-N-(1H-indazol-5-yl)-7H-pyrrolo[2,3-d]pyrimidin-4-amine]
0.264 | 1.68 |  |  | Fc1ccc(-c2nc(Nc3ccc4[nH]ncc4c3)c3cc[nH]c3n2)cc1F [Compound 6, 2-(3,4-Difluorophenyl)-N-(1H-indazol-5-yl)-7H-pyrrolo[2,3-d]pyrimidin-4-amine]
0.119 | 0.874 |  |  | Fc1ccc(-c2nc(Nc3ccc4[nH]ncc4c3)c3cc[nH]c3n2)c(F)c1 [Compound 7, 2-(2,4-Difluorophenyl)-N-(1H-indazol-5-yl)-7H-pyrrolo[2,3-d]pyrimidin-4-amine]
0.0842 | 0.747 |  |  | Cc1cc(-c2nc(Nc3ccc4[nH]ncc4c3)c3cc[nH]c3n2)ccc1F [Compound 8, 2-(4-Fluoro-3-methylphenyl)-N-(1H-indazol-5-yl)-7H-pyrrolo[2,3-d]pyrimidin-4-amine]
0.336 | 1.46 |  |  | Cc1cccc(-c2nc(Nc3ccc4[nH]ncc4c3)c3cc[nH]c3n2)c1 [Compound 9, N-(1H-Indazol-5-yl)-2-(3-methylphenyl)-7H-pyrrolo[2,3-d]pyrimidin-4-amine]
0.644 | 5.13 |  |  | Fc1ccc(-c2nc(Nc3ccc4[nH]ncc4c3)c3[nH]ccc3n2)cc1 [Compound 10, 2-(4-Fluorophenyl)-N-(1H-indazol-5-yl)-5H-pyrrolo[3,2-d]pyrimidin-4-amine]
0.917 | 5.33 |  |  | Cc1cccc(-c2nc(Nc3ccc4[nH]ncc4c3)c3[nH]ccc3n2)c1 [Compound 11, N-(1H-Indazol-5-yl)-2-(3-methylphenyl)-5H-pyrrolo[3,2-d]pyrimidin-4-amine]
0.306 | 0.732 |  |  | Cc1cnc(-c2ccc(F)cc2)nc1Nc1cnc2[nH]ncc2c1 [Compound 14, N-(2-(4-Fluorophenyl)-5-methylpyrimidin-4-yl)-1H-pyrazolo[3,4-b]pyridin-5-amine]
0.154 | 1.36 |  |  | Fc1cccc(-c2nccc(Nc3ccc4[nH]ncc4c3)n2)c1 [Compound 18, N-(2-(3-Fluorophenyl)pyrimidin-4-yl)-1H-indazol-5-amine]
 |  | 0.0321 | 0.112 | Fc1ccc(-c2nccc(Nc3ccc4[nH]ncc4c3)n2)cc1F [Compound 22, N-(2-(3,4-Difluorophenyl)pyrimidin-4-yl)-1H-indazol-5-amine]
0.846 | 3.99 |  |  | Fc1ccccc1-c1ncc(F)c(Nc2ccc3[nH]ncc3c2)n1 [Compound 24, N-(5-Fluoro-2-(2-fluorophenyl)pyrimidin-4-yl)-1H-indazol-5-amine]
 |  | 0.0911 | 0.326 | Fc1ccc(-c2nccc(Nc3ccc4[nH]ncc4c3)n2)cc1F [Compound 25, N-(2-(3,4-Difluorophenyl)pyrimidin-4-yl)-1H-indazol-5-amine]
0.126 | 1 |  |  | Cc1ccc(F)cc1-c1nccc(Nc2ccc3[nH]ncc3c2)n1 [Compound 26, N-(2-(5-fluoro-2-methylphenyl)pyrimidin-4-yl)-1H-indazol-5-amine]
